Measurements taken from US11472752B2, “Method for making resistant to thiodicarb (carbamate) and bifenthrin (pyrethroid) a consortium of fungi that solubilise phosphorous and antagonise certain pathogens, for use in liquid biofertilisers for foliar and/or soil application” (priority 2018, dated 2022).

Legend:
Assay in all cases: Stagewise adaptation on growth media poisoned with thiodicarb or bifenthrin; mortality rate
Format in all cases: cell-based
Beauveria bassiana = settings: for Resistant to: FINAL: final characteristics after selective process
Experimental: (§1) Strains of sulphur sulubilizer fungi, antagonist to some pathogens: • a) Paecilomyces sp. • b) Beauveria bassiana • c) Trichoderma harzianum • d) Metarhizium anisopliae Preparation for Stage Development 1. Glass material is sterilized in an autoclave. 2. The required amount of growth media is prepared with 3% rice broth (P/V), and 9% of a solution of molasses, sterilized at 121° C. for 15 minutes at a pressure of 15 lb. 3. Lethal dose (LD) applied to a hectare is established, for thiodicarb as well as bifenthrin. 10 Petri dishes are prepared with 0.1 LD of thiodicarb of bifenthrin. Dishes are incubated at 25° C. for 72 hours with cold light. 4. From the previous suspension with a known concentration, (107) the growth media is seeded with 1 ml, the pH adjustment is performed at 5.5 with a sterile 10 citric acid solution. 5. Stir at 110 rpm and 27 OC for 7 days. 6. The process is monitored controlling the variables, mainly the pH and biomass concentration, adjusting the pH to 5.5 during the entire process. 7. On the fourth day of the process, the foam formation is controlled with 1% soy oil and the stirring speed. Methodology a. Petri dishes are placed inside the laminar flow chamber along with the diluted samples, to seed microorganisms in the dishes, a one ml sample of the strain is taken with an automated pipette, 10^−1 and 10^−2 solutions are performed, and each solution is homogenized. b. Having the petri dishes with the sterile and cold growth media, it is homogenized with 6 right to left movements, 6 clockwise movements, 6 counterclockwise movements and 6 front to back movements over a flat horizontal surface until the inoculum is completely integrated into the media, stand until it solidifies and each dish is covered with parafilm to avoid contamination during incubation. c. Dishes with thiodicarb and Bifenthrin are placed inside the incubator at 25° C. for 72 hours with a cold light lamp. d. Inoculated dishes are incubated for 15 days, the product concentration impact is determined on mycelial growth, sporulation and germination (12 hours of incubation). e. The residual impact of the product is reviewed after 7 days in the malt agar, dextrose and PDA agar media, enriched with minerals. f. If there is no growth over 10%, the process is repeated until a mortality under 90% is obtained. g. […] After that, the suspension is stirred for 30 seconds in a Vortex tube mixer. The spore concentration is measured in a Newbawer Chamber and the results are reported in conidia per […]. i. From the 10 Petri dishes for each microorganism, the one with the lowest mortality rate is the one that will continue with the following study. j. The study is performed again using this percentage until coverage increases and so on, the addition of thiodicarb and bifenthrin is alternated with the LD in intervals of 0.1 LD; all these experiments have been designed with the experimental strains and a control. k. With the data obtained from the mycelial growth and sporulation, the percentage of inhibition of gradual growth is obtained, the data is transformed for its analysis with the expression 2 arc sin, and the sporulation through the equation Log 10(x+10). A two-way classification analysis of variance is applied and later the Turkey test is performed using a 5% probability.
(§2) For each species, stages analyzing times required to cover the entire field were performed. Once this time was determined, they were left to rest for 10 days to be later subject to the following protocol:
Stages begin with the conditions in its natural habitat: pH—7.0 a 7.5, Humidity: 30 to 40% and humidity is increased up to 70% and a Temperature from 28 to 30° C., maintained during all the research term. These conditions are the starting point to adapt the strain to thiodicarb (carbamate) and bifenthrin (pyrethroid). During all stages, we will be using a cold light lamp to adapt the microorganism to sunlight.

Paecilomyces sp. = system: Paecilomyces sp.
Experimental: Strains of sulphur sulubilizer fungi, antagonist to some pathogens: • a) Paecilomyces sp. • b) Beauveria bassiana • c) Trichoderma harzianum • d) Metarhizium anisopliae Preparation for Stage Development 1. Glass material is sterilized in an autoclave. 2. The required amount of growth media is prepared with 3% rice broth (P/V), and 9% of a solution of molasses, sterilized at 121° C. for 15 minutes at a pressure of 15 lb. 3. Lethal dose (LD) applied to a hectare is established, for thiodicarb as well as bifenthrin. 10 Petri dishes are prepared with 0.1 LD of thiodicarb of bifenthrin. Dishes are incubated at 25° C. for 72 hours with cold light. 4. […] The process is monitored controlling the variables, mainly the pH and biomass concentration, adjusting the pH to 5.5 during the entire process. […] Inoculated dishes are incubated for 15 days, the product concentration impact is determined on mycelial growth, sporulation and germination (12 hours of incubation). e. […] The spore concentration is measured in a Newbawer Chamber and the results are reported in conidia per square millimeter. i. […]
(§3) For each species, stages analyzing times required to cover the entire field were performed. Once this time was determined, they were left to rest for 10 days to be later subject to the following protocol: […]

Trichoderma harzianum = system: Trichoderma harzianum
Experimental: as §1, §2
Procedures begin with the conditions in its natural habitat: Humidity: 30 to 40% and humidity is increased up to 70% and a Temperature from 28 to 30° C., maintained during all the research term. pH from 7.0 to 7.5. These conditions are the starting point to adapt the strain to thiodicarb and bifenthrin.

Metarhizium anisopliae = settings: for Resistant to: FINAL: final development characteristics
Experimental: as §1, §3

[1] = stages E-3 and E-4, 0.2 LD (0.000035 gr)
[2] = stages E-25 and E-26, 0.7 LD (0.00012 gr)
[3] = stages E-35 and E-36, 1 LD (0.00018 gr)
[4] = stages E-43 and E-44, 1.2 LD (0.00022 gr)
[5] = stages E-49 and E-50, 1.1 LD (0.00024 gr)
[6] = stages E-51 and E-52, 1.2 LD (0.00026 gr)
[7] = stages E-33 and E-34, 0.9 LD (0.00016 gr)

Structure (SMILES): CS/C(C)=N\OC(=O)N(C)SN(C)C(=O)O/N=C(\C)SC [thiodicarb]
- Resistant to: FINAL (Beauveria bassiana): 1 LD of thiodicarb
- mortality rate (Beauveria bassiana; stages E-1 and E-2, 0.1 LD (0.0000175 gr), 32% humidity): 73%
- mortality rate (Beauveria bassiana; [1]): 73-79%
- mortality rate (Beauveria bassiana; [2]): 23%
- mortality rate (Beauveria bassiana; [3]): 26%
- mortality rate (Beauveria bassiana; [4]): 20%
- mortality rate (Beauveria bassiana; [5]): 14%
- mortality rate (Beauveria bassiana; [6]): 11%
- mortality rate (Paecilomyces sp.; [7]): 8%
- mortality rate (Paecilomyces sp.; [3]): 15%
- mortality rate (Trichoderma harzianum; stage E-1, 0.1 LD (0.0000175 gr), until day 68 of incubation): 82%
- mortality rate (Trichoderma harzianum; stage E-2, 0.1 LD (0.0000175 gr)): 85%
- mortality rate (Trichoderma harzianum; stages E-11 and E-12, 0.4 LD (0.000070 gr)): 75%
- mortality rate (Trichoderma harzianum; stages E-19 and E-20, 0.6 LD (0.00011 gr)): 66%
- mortality rate (Trichoderma harzianum; [2]): 60%
- mortality rate (Trichoderma harzianum; [4]): 18%
- mortality rate (Trichoderma harzianum; [5]): 10%
- mortality rate (Trichoderma harzianum; [6]): 8%
- Resistant to: FINAL (Metarhizium anisopliae): 1.3 LD of
- mortality rate (Metarhizium anisopliae; [1]): 55%
- mortality rate (Metarhizium anisopliae; [7]): 15%
- mortality rate (Metarhizium anisopliae; [3]): 15%

Structure (SMILES): Cc1c(COC(=O)[C@@H]2[C@H](/C=C(\Cl)C(F)(F)F)C2(C)C)cccc1-c1ccccc1 (racemic) [bifenthrin, 2-methyl biphenyl-3-ilmetil(2)-(1RS,3RS)-3-(2-chlorine 3,3,3-trifluoropropene)-2,2-dimethyl-cyclo-propane-carboxylate]
- Resistant to: FINAL (Beauveria bassiana): 1 LD of thiodicarb
- Resistant to: FINAL (Metarhizium anisopliae): 1.3 LD of
